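Where inhibition never reached the appropriate level, the endpoint shown equals the highest concentration tested. Otherwise, values were interpolated linearly from a five-concentration, 48-hour dose response in 96-well plates. TGI is the concentration that stops growth completely.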
Experiments:
Assay in all cases: NCI anticancer screen, dose series, 48 h
ACHN renal = tested on: ACHN renal
HL-60(TB) leukemia = tested on: HL-60(TB) leukemia
HS 578T breast = tested on: HS 578T breast
M14 melanoma = tested on: M14 melanoma
MCF7 breast = tested on: MCF7 breast
MDA-MB-231 breast = tested on: MDA-MB-231 breast
RXF 393 renal = tested on: RXF 393 renal
SF-539 CNS = tested on: SF-539 CNS
SNB-75 CNS = tested on: SNB-75 CNS
SR leukemia = tested on: SR leukemia
SW-620 colon = tested on: SW-620 colon
T-47D breast = tested on: T-47D breast
UACC-62 melanoma = tested on: UACC-62 melanoma

| Structure (SMILES) | TGI (ACHN renal) [µM] | TGI (HL-60(TB) leukemia) [µM] | TGI (HS 578T breast) [µM] | TGI (M14 melanoma) [µM] | TGI (MCF7 breast) [µM] | TGI (MDA-MB-231 breast) [µM] | TGI (RXF 393 renal) [µM] | TGI (SF-539 CNS) [µM] | TGI (SNB-75 CNS) [µM] | TGI (SR leukemia) [µM] | TGI (SW-620 colon) [µM] | TGI (T-47D breast) [µM] | TGI (UACC-62 melanoma) [µM] |
| --- | --- | --- | --- | --- | --- | --- | --- | --- | --- | --- | --- | --- | --- |
| O=[N+]([O-])c1cc(F)ccc1S(=O)(=O)c1ccccc1 | > 10 | > 10 | > 10 | > 10 | > 10 | > 10 | > 10 | > 10 | > 10 | > 10 | > 10 | > 10 | > 10 |
| CC(C)(C)NC(=O)/C(=C\Sc1ccccc1)c1ccccc1 | > 100 | > 100 | > 100 | > 100 | > 100 | > 100 | > 100 | > 100 | > 100 | > 100 | > 100 | > 100 | > 100 |
| C=C(C)[C@H]1C2=CC(C)=C(O2)[C@@H](O)[C@H](C(=C)C)CCC2=C[C@H]1OC2=O | > 100 | > 100 | > 100 | > 100 | > 100 | > 100 | > 100 | > 100 | > 100 | > 100 | > 100 | > 100 | > 100 |
| CCSc1nc(=S)n(-c2ccccc2)c(C)c1C(C)=O | > 100 | > 100 | > 100 | > 100 | > 100 | > 100 | > 100 | > 100 | > 100 | > 100 | > 100 | > 100 | > 100 |
| C=CC(=O)N1C/C(=C\c2ccc([N+](=O)[O-])cc2)C(=O)/C(=C/c2ccc([N+](=O)[O-])cc2)C1 | 0.33 | > 100 | 0.804 | 0.41 | 1.21 | 0.278 | 0.359 | 0.151 | 1.16 | > 100 | 1.96 | 1.79 | 0.688 |
| CCCCc1ccc(Nc2nc(Cl)c3c(ncn3C3CC(Oc4ccc(C)cc4)C(COc4ccc(C)cc4)O3)n2)cc1 (stereo not given) | > 100 | > 100 | > 100 | > 100 | > 100 | > 100 | > 100 | > 100 | 99.2 | > 100 | > 100 | > 100 | > 100 |
| O=[N+]([O-])/C=C(\CS(=O)(=O)c1ccccc1)c1ccc2c(c1)OCO2 | > 100 | > 100 | > 100 | 71.4 | > 100 | 64.1 | > 100 | > 100 | > 100 | > 100 | > 100 | > 100 | > 100 |
| CN(CCCNC(=O)c1nn(C)c2c1Cc1ccccc1-2)CCCNC(=O)c1nn(C)c2c1Cc1ccccc1-2 | 31 | 10.8 | 42.1 | 14.5 | 31.2 | 36.1 | 34.3 | 33.9 | 31.5 | > 100 | 27.9 | 61.8 | 35.9 |
| O=C(O)c1c2c(cc3c1CC1(Cc4cc5c(cc4C1=O)CCC5)C3)CCC2 (stereo not given) | > 100 | > 100 | > 100 | > 100 | > 100 | > 100 | > 100 | > 100 | > 100 | > 100 | > 100 | > 100 | > 100 |
| Cc1ccc(S(=O)(=O)N/N=C2\CC3CC4CCC2C4C3)cc1 (stereo not given) | > 100 | > 100 | > 100 | > 100 | > 100 | > 100 | > 100 | > 100 | > 100 | > 100 | > 100 | > 100 | > 100 |
| Nn1c(=O)[nH]c2ncn(Cc3ccccc3)c2c1=O | > 100 | > 100 | > 100 | > 100 | > 100 | > 100 | > 100 | > 100 | > 100 | > 100 | > 100 | > 100 | > 100 |
| COC(=O)C(Cc1c[nH]c2ccccc12)NP(=O)(O)OCC1OC(n2cc(Br)c(=O)[nH]c2=O)CC1O (stereo not given) | > 100 | > 100 | > 100 | > 100 | > 100 | > 100 | > 100 | > 100 | > 100 | > 100 | > 100 | > 100 | > 100 |
| Cc1cc2c(c(S(=O)(=O)c3ccccc3[N+](=O)[O-])c1)NCCC2 | > 100 | > 100 | > 100 | > 100 | > 100 | > 100 | > 100 | > 100 | > 100 | > 100 | > 100 | 40.2 | > 100 |
| COc1cccc2cc(C(=O)Nc3ccccc3)c(=N)oc12 | > 100 | > 100 | > 84.7 | > 100 | > 100 | > 100 | > 100 | > 100 | > 87.9 | > 100 | > 100 | > 31.4 | > 100 |
| CCOC(=O)C(=CNC(=S)N=Nc1c(O)[nH]c2ccccc12)C(=O)OCC | > 100 | > 100 | > 100 | > 100 | > 100 | > 100 | > 100 | > 100 | > 100 | > 100 | > 100 | > 100 | > 100 |
